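Each compound was tested at five concentrations against cells in 96-well plates for 48 hours. GI50 is the concentration that inhibits growth by half. TGI marks complete inhibition of growth.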
Key:
Assay in all cases: NCI tumour cell line growth inhibition, 48 h
DU-145 prostate = system: DU-145 prostate
MOLT-4 leukemia = system: MOLT-4 leukemia
OVCAR-5 ovarian = system: OVCAR-5 ovarian
HCT-116 colon = system: HCT-116 colon
ACHN renal = system: ACHN renal
SNB-19 CNS = system: SNB-19 CNS
NCI-H522 lung = system: NCI-H522 lung
SK-OV-3 ovarian = system: SK-OV-3 ovarian
CAKI-1 renal = system: CAKI-1 renal
PC-3 prostate = system: PC-3 prostate
U251 CNS = system: U251 CNS
HL-60(TB) leukemia = system: HL-60(TB) leukemia
HS 578T breast = system: HS 578T breast
KM12 colon = system: KM12 colon
OVCAR-3 ovarian = system: OVCAR-3 ovarian
T-47D breast = system: T-47D breast
RXF 393 renal = system: RXF 393 renal
MALME-3M melanoma = system: MALME-3M melanoma
COLO 205 colon = system: COLO 205 colon
HOP-62 NSCLC = system: HOP-62 NSCLC
RPMI-8226 leukemia = system: RPMI-8226 leukemia
OVCAR-8 ovarian = system: OVCAR-8 ovarian
NCI-H226 lung = system: NCI-H226 lung
BT-549 breast = system: BT-549 breast
IGROV1 ovarian = system: IGROV1 ovarian
UACC-257 melanoma = system: UACC-257 melanoma
SN12C renal = system: SN12C renal
HOP-92 NSCLC = system: HOP-92 NSCLC
SW-620 colon = system: SW-620 colon
SK-MEL-5 melanoma = system: SK-MEL-5 melanoma
OVCAR-4 ovarian = system: OVCAR-4 ovarian
SF-295 CNS = system: SF-295 CNS
M14 melanoma = system: M14 melanoma
SF-268 CNS = system: SF-268 CNS
MDA-MB-435 = system: MDA-MB-435
CCRF-CEM leukemia = system: CCRF-CEM leukemia
MCF7 breast = system: MCF7 breast
HT29 colon = system: HT29 colon
HCT-15 colon = system: HCT-15 colon
SF-539 CNS = system: SF-539 CNS
EKVX NSCLC = system: EKVX NSCLC
UO-31 renal = system: UO-31 renal
SNB-75 CNS = system: SNB-75 CNS
SK-MEL-28 melanoma = system: SK-MEL-28 melanoma
SR leukemia = system: SR leukemia
A549 NSCLC = system: A549 NSCLC
HCC-2998 colon = system: HCC-2998 colon
SK-MEL-2 melanoma = system: SK-MEL-2 melanoma
UACC-62 melanoma = system: UACC-62 melanoma
NCI/ADR-RES ovarian = system: NCI/ADR-RES ovarian
MDA-MB-231 breast = system: MDA-MB-231 breast
K-562 leukemia = system: K-562 leukemia
TK-10 renal = system: TK-10 renal
NCI-H460 lung = system: NCI-H460 lung
LOX IMVI melanoma = system: LOX IMVI melanoma
786-0 renal = system: 786-0 renal
A498 renal = system: A498 renal
NCI-H23 lung = system: NCI-H23 lung

## NC(N)=Nc1ccc(/C=C2\C=Cc3ccccc32)cc1
DU-145 prostate
  GI50: 2.36 µM
  TGI: 5.03 µM
MOLT-4 leukemia
  GI50: 2.41 µM
  TGI: 5.22 µM
OVCAR-5 ovarian
  GI50: 2.61 µM
  TGI: 6.77 µM
HCT-116 colon
  GI50: 1.55 µM
  TGI: 2.93 µM
ACHN renal
  GI50: 1.91 µM
  TGI: 3.56 µM
SNB-19 CNS
  GI50: 6.32 µM
  TGI: 32.5 µM
NCI-H522 lung
  GI50: 2.39 µM
  TGI: 5.79 µM
SK-OV-3 ovarian
  GI50: 6.14 µM
  TGI: 22.9 µM
CAKI-1 renal
  GI50: 2.49 µM
  TGI: 8.67 µM
PC-3 prostate
  GI50: 3.31 µM
  TGI: 14.8 µM
U251 CNS
  GI50: 1.72 µM
  TGI: 3.31 µM
HL-60(TB) leukemia
  GI50: 2.67 µM
  TGI: 5.87 µM
HS 578T breast
  GI50: 5.38 µM
  TGI: 28.6 µM
KM12 colon
  GI50: 1.85 µM
  TGI: 3.51 µM
OVCAR-3 ovarian
  GI50: 3.05 µM
  TGI: 8.93 µM
T-47D breast
  GI50: 2.48 µM
  TGI: 7.39 µM
RXF 393 renal
  GI50: 2.14 µM
  TGI: 5.52 µM
MALME-3M melanoma
  GI50: 4.41 µM
  TGI: 16.5 µM
COLO 205 colon
  GI50: 1.99 µM
  TGI: 3.7 µM
HOP-62 NSCLC
  GI50: 2.4 µM
  TGI: 6.23 µM
RPMI-8226 leukemia
  GI50: 3.18 µM
  TGI: 14.4 µM
OVCAR-8 ovarian
  GI50: 2.22 µM
  TGI: 5.67 µM
NCI-H226 lung
  GI50: 5.73 µM
  TGI: 31.1 µM
BT-549 breast
  GI50: 3.98 µM
  TGI: 26.5 µM
IGROV1 ovarian
  GI50: 2.02 µM
  TGI: 5.12 µM
UACC-257 melanoma
  GI50: 4.99 µM
  TGI: 18.3 µM
SN12C renal
  GI50: 2.95 µM
  TGI: 13.2 µM
HOP-92 NSCLC
  GI50: 1.44 µM
  TGI: 4.6 µM
SW-620 colon
  GI50: 1.83 µM
  TGI: 3.82 µM
SK-MEL-5 melanoma
  GI50: 4.5 µM
  TGI: 17.8 µM
OVCAR-4 ovarian
  GI50: 2.89 µM
  TGI: 15.1 µM
SF-295 CNS
  GI50: 7.28 µM
  TGI: 24.6 µM
M14 melanoma
  GI50: 2.05 µM
  TGI: 5.44 µM
SF-268 CNS
  GI50: 3.12 µM
  TGI: 10.9 µM
MDA-MB-435
  GI50: 1.84 µM
  TGI: 3.92 µM
CCRF-CEM leukemia
  GI50: 2.09 µM
  TGI: 4.9 µM
MCF7 breast
  GI50: 0.523 µM
  TGI: 2.37 µM
HT29 colon
  GI50: 2.05 µM
  TGI: 4.11 µM
HCT-15 colon
  GI50: 2.13 µM
  TGI: 4.55 µM
SF-539 CNS
  GI50: 3.66 µM
  TGI: 9.66 µM
EKVX NSCLC
  GI50: 4.74 µM
  TGI: 22.2 µM
UO-31 renal
  GI50: 2.15 µM
  TGI: 6.58 µM
SNB-75 CNS
  GI50: 2.22 µM
  TGI: 8.99 µM
SK-MEL-28 melanoma
  GI50: 4.38 µM
  TGI: 17.9 µM
SR leukemia
  GI50: 2.5 µM
  TGI: 6.85 µM
A549 NSCLC
  GI50: 1.87 µM
  TGI: 4.63 µM
HCC-2998 colon
  GI50: 1.69 µM
  TGI: 3.15 µM
SK-MEL-2 melanoma
  GI50: 4.83 µM
  TGI: 11.6 µM
UACC-62 melanoma
  GI50: 2.84 µM
  TGI: 9.94 µM
NCI/ADR-RES ovarian
  GI50: 4.54 µM
  TGI: 18.8 µM
MDA-MB-231 breast
  GI50: 1.71 µM
  TGI: 3.83 µM
K-562 leukemia
  GI50: 2.66 µM
  TGI: > 22 µM
TK-10 renal
  GI50: 2.02 µM
  TGI: 4.04 µM
NCI-H460 lung
  GI50: 2.01 µM
  TGI: 4.51 µM
LOX IMVI melanoma
  GI50: 1.63 µM
  TGI: 3.02 µM
786-0 renal
  GI50: 3.22 µM
  TGI: 14.8 µM
A498 renal
  GI50: 4.83 µM
  TGI: 19.2 µM
NCI-H23 lung
  GI50: 2.95 µM
  TGI: 10.4 µM

Source: PubChem BioAssay (NCI)
